Calls of active or inactive are those of the source. The calls are words filed in the database; no cut-off is given here. Bounds are passed on as bounds.

One assay relates to Leishmania donovani. The assay can be described thus: In vitro inhibitory activity against Leishmania donovani; Inactive. The format is functional, organism-based.
The subject of assay [1] is Trypanosoma brucei. As to the kind of experiment: In vitro inhibitory activity against Trypanosoma brucei; Inactive. It is filed as functional, organism-based.
The subject of assay [2] is Trypanosoma brucei. The assay can be described thus: In vitro inhibitory activity against Trypanosoma brucei. The format is functional, organism-based.
In another assay the test system is Trypanosoma cruzi. The assay can be described thus: In vitro inhibitory activity against growth of Trypanosoma cruzi at a concentration of 30 uM; 20-40%. The format is functional. As to conditions: read-out: GI.

As for `OCC(CO)OC(CO)n1cnc2c(O)ncnc21` (stereo unspecified), the outcome in the assay with Leishmania donovani was inactive. In the assay on Trypanosoma brucei [1], this compound returned a concentration for half-maximal inhibition (IC50) not below 100 µM.
For the compound `CC(=O)OCC(CO)OC(COC(C)=O)n1cnc2c(N)ncnc21` (stereo unspecified), the outcome in the assay with Leishmania donovani was inactive. This compound also registered an IC50 in the assay with Trypanosoma brucei [2] of 7 µM.
`CCC(CO)OC(CO)n1cnc2c(N)ncnc21` (stereo unspecified): in the assay on Trypanosoma cruzi, the inhibition of growth at 30 µM came out at 40%. In addition, in the assay on Leishmania donovani, the outcome was inactive.
On to `CC(=O)OCCSCC(COC(C)=O)OC(COC(C)=O)n1cnc2c(N)ncnc21` (stereo unspecified), for which the result in the assay with Leishmania donovani was inactive. Also, in the assay with Trypanosoma brucei [2], the IC50 is 5.3 µM.
Consider `CC(=O)OCC(COC(C)=O)OC(COC(C)=O)n1cnc2c(O)ncnc21` (stereo unspecified), for which the outcome with Leishmania donovani was inactive. Further, the half-maximal inhibitory concentration (IC50) with Trypanosoma brucei [2] is 5.4 µM.
As to `Nc1ncnc2c1ncn2C(CO)OC(CO)CO` (stereo unspecified), the outcome in the assay on Leishmania donovani was inactive. The compound further came in with a half-inhibitory concentration (IC50) in the assay with Trypanosoma brucei [1] not below 100 µM.
With `Nc1ncnc2c1ncn2C(CO)OC(CO)CCl` (stereo unspecified), the inhibition of growth at 30 µM in the assay on Trypanosoma cruzi was 40%. Also, the outcome with Leishmania donovani was inactive.
For the compound `Nc1ncnc2c1ncn2C(CO)OC(CO)CSCCO` (stereo unspecified), the outcome in the assay with Leishmania donovani was inactive. Besides, the IC50 in the assay with Trypanosoma brucei [1] is not below 100 µM.

The record behind these values is ChEMBL document CHEMBL1150000, “Purine 2, 3-acyclonucleosides: Improved synthesis and antiparasitic actimity” (Bioorg Med Chem Lett, 1995).
